Test results from US10131652B2, “Pyrimidinyloxy benzene derivatives as herbicides” (E. I. DU PONT DE NEMOURS AND COMPANY, priority 2014, dated 2018).
Like-named read-outs stand apart in the source and are kept apart here.

Assays:
Type in all cases: in vivo
[1] = system: barnyardgrass (Echinochloa crus-galli); assay: Test D pre-/postemergence plant response; details: Echinochloa crus-galli, pre-emergence; Preemergence; 31 g ai/ha; scale 0 to 100 (0 no effect, 100 complete control); read-out: Plant response rating, Barnyardgrass
Procedure, shortened: (§1)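 Preemergence: seeds in loam/sand blend treated with test chemicals in non-phytotoxic solvent with surfactant; postemergence: plants at 2–18 cm (1- to 4-leaf stage) in peat-based medium sprayed likewise. Greenhouse 13 to 15 days, then visual rating vs controls, 0 (no effect) to 100 (complete control).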

[2] = system: galium (catchweed bedstraw, Galium aparine); assay: Test D pre-/postemergence plant response; details: Galium; for pest or weed control at 16 g/ha: 16 g ai/ha; for pest or weed control at 31 g/ha: 31 g ai/ha; for pest or weed control at 62 g/ha: 62 g ai/ha; for pest or weed control at 125 g/ha: 125 g ai/ha
Procedure, shortened: as §1

[3] = system: Italian ryegrass (Lolium multiflorum); assay: Test D pre-/postemergence plant response; details: Lolium multiflorum; for pest or weed control at 16 g/ha: 16 g ai/ha; for pest or weed control at 31 g/ha: 31 g ai/ha; for pest or weed control at 62 g/ha: 62 g ai/ha; for pest or weed control at 125 g/ha: 125 g ai/ha
Procedure, shortened: as §1

[4] = system: yellow nutsedge (Cyperus esculentus); assay: Test D pre-/postemergence plant response; details: Cyperus; for pest or weed control at 16 g/ha: 16 g ai/ha; for pest or weed control at 31 g/ha: 31 g ai/ha; for pest or weed control at 62 g/ha: 62 g ai/ha; for pest or weed control at 125 g/ha: 125 g ai/ha
Procedure, shortened: as §1

[5] = system: corn (Zea mays); assay: Test D pre-/postemergence plant response; details: Zea mays; for Corn plant response rating (crop injury, 0 = no effect, 100 = complete kill) at 62 g/ha: 62 g ai/ha
Procedure, shortened: as §1

[6] = system: large (Lg) crabgrass (Digitaria sanguinalis); assay: Test D pre-/postemergence plant response; details: Digitaria sanguinalis; for pest or weed control at 16 g/ha: 16 g ai/ha; for pest or weed control at 31 g/ha: 31 g ai/ha; for pest or weed control at 62 g/ha: 62 g ai/ha; for pest or weed control at 125 g/ha: 125 g ai/ha
Procedure, shortened: as §1

[7] = system: ragweed (common ragweed, Ambrosia elatior); assay: Test B pre-/postemergence plant response; details: 1000 g ai/ha, 0 to 100 scale (0 no effect, 100 complete control)
Procedure, shortened: (§2)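 Greenhouse pots, loam/sand soil; compound formulated with surfactant in non-phytotoxic solvent. Preemergence soil spray and postemergence spray at 1–2 leaf stage run simultaneously. Visual injury, 0–100, about 10 days post-treatment.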

[8] = system: kochia (Kochia scoparia); assay: Test B pre-/postemergence plant response; details: 1000 g ai/ha, 0 to 100 scale (0 no effect, 100 complete control)
Procedure, shortened: as §2

[9] = system: Italian ryegrass (Lolium multiflorum); assay: Test B pre-/postemergence plant response; details: 1000 g ai/ha, 0 to 100 scale (0 no effect, 100 complete control)
Procedure, shortened: as §2

[10] = post-emergence, Postemergence, scale 0 to 100 (0 no effect, 100 complete control), read-out: Galium plant response rating
[11] = post-emergence, Postemergence, scale 0 to 100, 0 no effect, 100 complete control, read-out: Plant response rating, Galium
[12] = pre-emergence, Preemergence, scale 0 to 100 (0 no effect, 100 complete control), read-out: Plant response rating, Galium
[13] = post-emergence, Postemergence, scale 0 to 100 (0 no effect, 100 complete control), read-out: Ryegrass, Italian plant response rating
[14] = post-emergence, Postemergence, scale 0 to 100, 0 no effect, 100 complete control, read-out: Plant response rating, Ryegrass, Italian
[15] = pre-emergence, Preemergence, scale 0 to 100 (0 no effect, 100 complete control), read-out: Plant response rating, Ryegrass, Italian
[16] = post-emergence, Postemergence, scale 0 to 100 (0 no effect, 100 complete control), read-out: Nutsedge, Yellow plant response rating
[17] = post-emergence, Postemergence, scale 0 to 100, 0 no effect, 100 complete control, read-out: Plant response rating, Nutsedge, Yellow
[18] = pre-emergence, Preemergence, scale 0 to 100 (0 no effect, 100 complete control), read-out: Plant response rating, Nutsedge, Yellow
[19] = post-emergence, Postemergence, scale 0 to 100 (0 no effect, 100 complete control), read-out: Crabgrass, Large plant response rating
[20] = post-emergence, Postemergence, scale 0 to 100, 0 no effect, 100 complete control, read-out: Plant response rating, Crabgrass, Large
[21] = pre-emergence, Preemergence, scale 0 to 100 (0 no effect, 100 complete control), read-out: Plant response rating, Crabgrass, Large

Fc1cccc(Oc2ncc(Cl)cn2)c1-c1cc(C(F)F)on1 [Compound 55, 5-chloro-2-[2-[5-(difluoromethyl)-3-isoxazolyl]-3-fluorophenoxy]pyrimidine]
pest or weed control at 31 g/ha [1]: 85%
pest or weed control at 16 g/ha [2, 10]: 80%
pest or weed control at 31 g/ha [2, 10]: 90%
pest or weed control at 62 g/ha [2, 11]: 90%
pest or weed control at 125 g/ha [2, 11]: 90%
pest or weed control at 125 g/ha ([2]; pre-emergence, Preemergence, read-out: Plant response rating (scale 0 to 100), Galium): 100%
pest or weed control at 16 g/ha [2, 12]: 100%
pest or weed control at 31 g/ha [2, 12]: 100%
pest or weed control at 62 g/ha [2, 12]: 100%
pest or weed control at 16 g/ha [3, 13]: 0%
pest or weed control at 31 g/ha [3, 13]: 5%
pest or weed control at 62 g/ha [3, 14]: 10%
pest or weed control at 125 g/ha [3, 14]: 15%
pest or weed control at 125 g/ha ([3]; pre-emergence, Preemergence, read-out: Plant response rating (scale 0 to 100), Ryegrass, Italian): 95%
pest or weed control at 16 g/ha [3, 15]: 15%
pest or weed control at 31 g/ha [3, 15]: 35%
pest or weed control at 62 g/ha [3, 15]: 85%
pest or weed control at 16 g/ha [4, 16]: 0%
pest or weed control at 31 g/ha [4, 16]: 5%
pest or weed control at 62 g/ha [4, 17]: 5%
pest or weed control at 125 g/ha [4, 17]: 5%
pest or weed control at 125 g/ha ([4]; pre-emergence, Preemergence, read-out: Plant response rating (scale 0 to 100), Nutsedge, Yellow): 70%
pest or weed control at 16 g/ha [4, 18]: 0%
pest or weed control at 31 g/ha [4, 18]: 10%
pest or weed control at 62 g/ha [4, 18]: 55%
plant injury at 16 g/ha ([5]; post-emergence, Postemergence, 16 g ai/ha, scale 0 to 100 (0 no effect, 100 complete control), read-out: Corn plant response rating): 10%
plant injury at 31 g/ha ([5]; post-emergence, Postemergence, 31 g ai/ha, scale 0 to 100 (0 no effect, 100 complete control), read-out: Corn plant response rating): 10%
Corn plant response rating (crop injury, 0 = no effect, 100 = complete kill) at 62 g/ha ([5]; post-emergence, Postemergence, scale 0 to 100, 0 no effect, 100 complete control): 10%
Corn plant response rating (crop injury, 0 = no effect, 100 = complete kill) at 125 g/ha ([5]; post-emergence, Postemergence, 125 g ai/ha, scale 0 to 100, 0 no effect, 100 complete control): 20%
plant injury at 125 g/ha ([5]; pre-emergence, Preemergence, 125 g ai/ha, read-out: Plant response rating (scale 0 to 100), Corn): 80%
Corn plant response rating (crop injury, 0 = no effect, 100 = complete kill) at 16 g/ha ([5]; pre-emergence, Preemergence, 16 g ai/ha, scale 0 to 100 (0 no effect, 100 complete control)): 5%
Corn plant response rating (crop injury, 0 = no effect, 100 = complete kill) at 31 g/ha ([5]; pre-emergence, Preemergence, 31 g ai/ha, scale 0 to 100 (0 no effect, 100 complete control)): 20%
Corn plant response rating (crop injury, 0 = no effect, 100 = complete kill) at 62 g/ha ([5]; pre-emergence, Preemergence, scale 0 to 100 (0 no effect, 100 complete control)): 35%
pest or weed control at 16 g/ha [6, 19]: 5%
pest or weed control at 31 g/ha [6, 19]: 10%
pest or weed control at 62 g/ha [6, 20]: 10%
pest or weed control at 125 g/ha [6, 20]: 15%
pest or weed control at 125 g/ha ([6]; pre-emergence, Preemergence, read-out: Plant response rating (scale 0 to 100), Crabgrass, Large): 100%
pest or weed control at 16 g/ha [6, 21]: 100%
pest or weed control at 31 g/ha [6, 21]: 100%
pest or weed control at 62 g/ha [6, 21]: 100%
Plant response rating, Ragweed ([7]; Postemergence): 100
Plant response rating, Ragweed ([7]; Preemergence): 100
Plant response rating, Kochia ([8]; Postemergence): 100
Plant response rating, Kochia ([8]; Preemergence): 100
Plant response rating, Ryegrass, Italian ([9]; Postemergence): 100
Plant response rating, Ryegrass, Italian ([9]; Preemergence): 100
